Columns and labels:
[1] = test system: NF-κB and p38 MAPK signaling pathways, APPL1; test: Western blotting of signaling proteins in Raw264.7 cells; format: cell-based; settings: for densitometry value p-IRAK4 (FIG. 5a) / densitometry value p-P38 (FIG. 5a) / densitometry value APPL1 (FIG. 5e), without LPS / densitometry value APPL1 (FIG. 5e), with LPS: relative to first lane 1.00, lane order inferred; for densitometry value p-IRAK4 (FIG. 5a) / densitometry value p-P38 (FIG. 5a): APR 20 μM or AdipoAI 5 μM 24 h, LPS 30 min; for densitometry value APPL1 (FIG. 5e), without LPS: APR 20 μM; for densitometry value APPL1 (FIG. 5e), with LPS: LPS alone 0.32
Method: FIG. 5 AdipoAI inhibition of NF-κB and p38 MAPK signaling pathways is dependent of AdipoR1/APPL1 axis in LPS-induced macrophages. (a) Impact of AdipoAI in the phosphorylation of related signaling proteins by western blotting. Raw264.7 cells were pretreated with APR (20 μM) or AdipoAI (5 μM) for 24 h followed by incubation with LPS (100 ng/mL) for an additional 30 min. Representative images are shown, and quantitative analysis of protein expression was performed by densitometric analysis (see lower panel), densitometry values—p-IRAK4: 1.00, 0.13, 0.09; p-P38: 1.00, 0.76, 0.26. (b) Expression of p65 protein in cytoplasmic and nuclear extracts of Raw264.7 cells. Representative images of p65 expression are presented along with Lamin B1 and β-actin expression which were used as internal loading controls. Quantitative analysis of protein expression was performed by densitometric analysis (lower panel), Densitometry values-p-P65: 0.53, 1.00, 0.38, 0.76; P65: 0.32, 1.00, 0.21, 0.53. (c) RAW 264.7 cells were transfected with siRNA targeting cither AdipoR1, AdipoR2, APPL1, APPL2 or scrambled control siRNA for 24 h, followed by stimulation with AdipoAI or APR for 24 h, then incubation with LPS for additional 6 h. Transfection efficiency of siRNA and mRNA expression levels of IL-6, IL-1β were measured by qPCR and normalized with GAPDH mRNA levels. Data were expressed as the mean±SEM at five biological independent experiments. One-way ANOVA test for multiple-group comparisons, *P<0.05, significant differences between each indicated group. ns, not significant. (d) RAW 264.7 cells were stimulated with LPS, AdipoAI, or APR for different times and proteins levels determined by western blotting. Representative western blotting images are shown along with β-actin used as an internal loading control and densitometric analysis. Densitometry values-Panel 1: APPL1: 1.00, 0.48, 0.44; Panel 2: APPL1: 1.00, 2.17, 5.38; Panel 3: APPL1: 1.00, 2.11, 4.82. (e) Raw264.7 cells were pretreated with APR (20 μM) or AdipoAI (5 μM) for 24 h followed by incubation with LPS (100 ng/mL) for additional 6 h for the measurement of related proteins by WB. Representative images are shown along with β-actin as an internal loading control and densitometric analysis. Densitometry values—APPL1: 1.00, 1.53, 1.58, 0.32, 0.45, 0.67. (f) Raw264.7 cells and (g) BMMs were transfected with siRNA targeting APPL1 or scrambled control siRNA for 24 h, followed by stimulation with AdipoAI for 24 h, then incubation with LPS for additional 6 h for western blotting analysis. Densitometry values for f—APPL1: 1.00, 0.43; p-IRAK4: 1.00, 1.31; p-P-38:1.00, 1.47. Densitometry values for g—APPL1: 1.00, 0.38; p-IRAK4: 1.00, 1.30; p-P38: 1.00, 1.67. Representative images are shown along with β-actin as an internal loading control, and densitometric analysis. No statistical analysis of western blotting for n=3.
Total cellular extracts were prepared using RIPA Lysis and Extraction Buffer containing three Protease Inhibitors (Thermo Scientific). Cytoplasmic and nuclear extracts were purified using NE-PER™ Nuclear and Cytoplasmic Extraction Reagents (Thermo Scientific). Experimental details of western blotting are in accordance with British Journal of Pharmacology guidelines (Alexander et al., 2018) and western blot analyses were performed as previously described (J. Zhang et al., 2017). Briefly, the total protein concentration was quantified using BCA kit (P1511; Applygen Technologies Inc., Beijing, China). The samples were separated by SDS-PAGE and electrophoretically transferred to a polyvinylidene difluoride membrane (Merck Millipore, Darmstadt, Germany). The membranes were blocked with 5% skim milk for 1 to 2 hr at room temperature. […]

[2] = test system: RAW 264.7 cells; test: CCK-8 cell viability assay, Example 2; settings: 2 days, compared with vehicle-treated group
Method: RAW 264.7 cells were treated with receptor activator of nuclear factor KB ligand (RANKL) (100 ng/ml) for 2 days with or without AdipoRon (20 μM) or AdipoAI (5 μM) for another 2 days. […] (C) The CCK-8 analysis of RAW 264.7 cells treated with 20 μM AdipoRon or 5 μM AdipoAI for 48 h. (D) The CCK-8 analysis of RAW 264.7 cells' proliferation at different doses of APR and AdipoAI. Cells were treated with 100 ng/ml RANKL for 2 days with or without AdipoRon (5, 20 μM) or AdipoAI (5, 20 μM) every 2 days for 4 days. […] Data are shown as mean±SD., compared with the vehicle-treated group, *P<0.05. **P<0.01. ***P<0.001.
RAW 264.7 cells (2×10^3 cells/well) were seeded in 96-well plates and treated with or without AdipoRon or AdipoAI for 48 hours in a humidified chamber at 37° C. in 5% CO2 and air. Cell viability was determined with the Cell Counting Kit-8 (CCK-8 kit, Dojindo, Santa Clara, CA, USA) following the manufacturer's recommendations. Briefly, CCK-8 solution (10 μL) was added to each well and cells were incubated in dark for 3 hours. Cell viability was determined by measuring the absorbance at 450 nm.

[3] = test system: AdipoR1/2 mRNA expression; test: qRT-PCR of AdipoR1/2 mRNA in Raw264.7 cells; format: cell-based; settings: 24 h
Method: FIG. 10 Raw264.7 cells were treated with different doses of AdipoAI for 24 h to measure AdipoR1/2 mRNA expression by qRT-PCR. Data were expressed as the mean±SEM at five biological independent experiments. One-way ANOVA test for multiple-group comparisons, * vs. control group. *P<0.05, significant differences between each indicated group.
Total RNA of cells was extracted using Quick-RNA Miniprep Kit (ZYMO Research, Irvine, CA, USA) and total RNA from mouse tissues was prepared with TriZol reagent (Life Technologies) according to the manufacturer's instructions followed by qRT-PCR assays as described previously (L. Zhang et al., 2014). 1 μg of total RNA was used for reverse transcription using the M-MLV Reverse Transcriptase (Thermo Scientific, Waltham, MA, USA) according to the manufacturer's protocol using PowerUp SYBR Green Master Mix (Thermo Scientific) on a Bio-Rad iQ5 thermal cycler (Bio-Rad Laboratories, Hercules, CA, USA). Differences in expression were evaluated by the comparative cycle threshold method using GAPDH or β-actin as a control. The primer sequences used for the qRT-PCR experiments are listed in supplemental Table 1.

[4] = LPS-induced Raw264.7 cells, AdipoAI 5 μM

`O=C(COc1ccc(C(=O)c2ccccc2)cc1)NC1CCN(Cc2ccccc2)CC1` [AdipoRon, reference compound] was tested, and the APPL1 protein expression ([1]; Raw264.7 cells) was “increased”, the “densitometry value p-IRAK4 (FIG. 5a)” value [1] was 0.13 and the “densitometry value p-P38 (FIG. 5a)” value [1] was 0.76. The “densitometry value APPL1 (FIG. 5e), without LPS” value ([1]; AdipoAI 5 μM) was 1.53, the “densitometry value APPL1 (FIG. 5e), with LPS” value [1] was 0.45 and the “number of RAW 264.7 cells (CCK-8) at 20 μM” value [2] was “did not reduce the number of RAW 264.7 cells”.
In the case of `COc1ccc(CN2CCC(NC(=O)COc3ccc(C(=O)c4ccc(Cl)cc4)cc3)CC2)cc1` [Compound 3], the “mRNA levels of AdipoRs” value [3] is reported as “increased the mRNA levels of AdipoRs”, the “phosphorylation of AKT, JNK or ERK” value ([1]; LPS-induced Raw264.7 cells) is reported as “did not significantly alter phosphorylation of AKT, JNK or ERK” and the “decrease of phosphorylation of IRAK4” value [1, 4] is reported as 70%. The “decrease of phosphorylation of p38” value [1, 4] was 70%, the APPL1 protein expression ([1]; Raw264.7 cells) was “increased APPL1 expression” and the “AdipoR1 or AdipoR2 protein levels” value ([1]; Raw264.7 cells) was “did not influence AdipoR1 or AdipoR2 protein levels”. For the same compound, the “LPS-induced p65 phosphorylation and nuclear translocation” value ([1]; Raw264.7 cells) was “suppressed LPS-induced p65 phosphorylation and nuclear translocation”, the “densitometry value p-IRAK4 (FIG. 5a)” value [1] was 0.09 and the “densitometry value p-P38 (FIG. 5a)” value [1] was 0.26. For the same compound, the “densitometry value APPL1 (FIG. 5e), without LPS” value ([1]; AdipoAI 5 μM) was 1.58 and the “densitometry value APPL1 (FIG. 5e), with LPS” value [1] was 0.67.

From patent US12391646B2, “Using adiponectin receptor agonists to treat inflammation and bone diseases in diabetes” (Trustees of Tufts College, priority 2020, dated 2025)
